Where two headings read alike, the source gives them in different places. *1 amine or outer side, *2 acyl side, *3 side chain or, on linkers, in order; H or OH if unused. Where a SMILES comes first, the peptide text is derived from it. Side-chain parts run from the residue outwards. [ ]: non-standard residue; d: D form. The star is where a group is joined. C20 diacid = O=C(O)CCCCCCCCCCCCCCCCCCC(=O)*; C18 diacid = O=C(O)CCCCCCCCCCCCCCCCC(=O)*; γGlu = O=C(O)[C@H](CCC(=O)[*:2])N[*:1]; εLys = N[C@@H](CCCCN[*:1])C(=O)[*:2]; Palmitoyl = CCCCCCCCCCCCCCCC(=O)*; AEEA = NCCOCCOCC(=O)O; Aib = CC(C)(N)C(=O)O
Experiments:
[1] = target: T1, human GIP receptor (Homo sapiens, UniProt P48546); assay: In vitro functional potency (CRE luciferase; whole cells), human GIPR; format: cell-based; conditions: BHK CRE luc2P hGIPR whole cells, read-out: hGIPR CRE Luc EC50
T1 construct: expressed in transfected cells; host or cells: BHK cells (parent line BHKTS13) containing CRE luciferase
T1 sequence (P48546 22-466): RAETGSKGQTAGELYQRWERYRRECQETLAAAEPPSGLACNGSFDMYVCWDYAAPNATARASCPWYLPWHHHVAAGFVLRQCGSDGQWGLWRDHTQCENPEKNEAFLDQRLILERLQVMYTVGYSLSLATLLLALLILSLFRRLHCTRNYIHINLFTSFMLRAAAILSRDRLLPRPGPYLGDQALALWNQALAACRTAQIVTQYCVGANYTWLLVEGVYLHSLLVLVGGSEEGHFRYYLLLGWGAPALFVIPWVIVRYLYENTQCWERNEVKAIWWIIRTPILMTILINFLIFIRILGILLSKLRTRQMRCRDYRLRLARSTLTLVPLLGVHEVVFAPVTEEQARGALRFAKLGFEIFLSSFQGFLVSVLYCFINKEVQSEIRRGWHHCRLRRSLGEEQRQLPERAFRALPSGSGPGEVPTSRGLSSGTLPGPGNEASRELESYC

[2] = target: T2, human GLP-1 receptor (Homo sapiens, UniProt P43220); assay: In vitro functional potency (CRE luciferase; whole cells), human GLP-1R; format: cell-based; conditions: BHK CRE luc2P hGLP-1R whole cells; Table 2; read-out: hGLP-1R CRE Luc EC50
T2 construct: expressed in transfected cells; host or cells: BHK cells (parent line BHKTS13) containing CRE luciferase
T2 sequence (P43220 24-463): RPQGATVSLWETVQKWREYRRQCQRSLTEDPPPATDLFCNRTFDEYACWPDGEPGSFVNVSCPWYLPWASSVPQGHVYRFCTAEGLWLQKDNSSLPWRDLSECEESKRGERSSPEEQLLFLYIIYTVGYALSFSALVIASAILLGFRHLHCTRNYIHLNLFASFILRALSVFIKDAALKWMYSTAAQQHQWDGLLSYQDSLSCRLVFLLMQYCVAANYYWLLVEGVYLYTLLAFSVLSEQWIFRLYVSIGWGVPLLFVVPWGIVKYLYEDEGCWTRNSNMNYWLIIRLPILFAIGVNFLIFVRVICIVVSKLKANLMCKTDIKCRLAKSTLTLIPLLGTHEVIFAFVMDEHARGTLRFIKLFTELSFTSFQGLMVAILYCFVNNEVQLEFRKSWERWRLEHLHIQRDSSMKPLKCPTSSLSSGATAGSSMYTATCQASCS

Question: How did the EC50 ([1]; Table 2) turn out when CC[C@H](C)[C@H](NC(=O)[C@H](CO)NC(=O)[C@H](Cc1ccc(O)cc1)NC(=O)[C@H](CC(=O)O)NC(=O)[C@H](CO)NC(=O)[C@@H](NC(=O)[C@H](Cc1ccccc1)NC(=O)[C@@H](NC(=O)CNC(=O)[C@H](CCC(N)=O)NC(=O)C(C)(C)NC(=O)[C@@H](N)Cc1ccc(O)cc1)[C@@H](C)O)[C@@H](C)O)C(=O)N[C@@H](Cc1ccc(O)cc1)C(=O)N[C@@H](CC(C)C)C(=O)N[C@@H](CCC(=O)O)C(=O)N[C@@H](CCCCNC(=O)COCCOCCNC(=O)COCCOCCNC(=O)CC[C@H](NC(=O)CCCCCCCCCCCCCCCCCCC(=O)O)C(=O)O)C(=O)N[C@@H](CCC(N)=O)C(=O)N[C@@H](C)C(=O)N[C@@H](C)C(=O)NC(C)(C)C(=O)N[C@@H](CCC(=O)O)C(=O)N[C@@H](Cc1ccccc1)C(=O)N[C@H](C(=O)N[C@@H](CC(N)=O)C(=O)N[C@@H](Cc1c[nH]c2ccccc12)C(=O)N[C@@H](CC(C)C)C(=O)N[C@@H](CC(C)C)C(=O)N[C@@H](C)C(=O)NCC(=O)NCC(=O)N1CCC[C@H]1C(=O)N[C@@H](CO)C(=O)N[C@@H](CO)C(=O)NCC(=O)N[C@@H](C)C(=O)N1CCC[C@H]1C(=O)N1CCC[C@H]1C(=O)N1CCC[C@H]1C(=O)N[C@@H](CO)C(N)=O)C(C)C [Compound No. 15] (H-Y[Aib]QGTFTSDYSIYLEK([AEEA-AEEA-γGlu-C20 diacid])QAA[Aib]EFVNWLLAGGPSSGAPPPS-NH2) was run?
Answer: The EC50 was 4.8 pM.

Question: What about the EC50 [2] of the same compound?
Answer: The EC50 was 1.4 pM.

Question: How did the EC50 ([1]; Table 2) turn out when CC[C@H](C)[C@H](NC(=O)[C@H](CO)NC(=O)[C@H](Cc1ccc(O)cc1)NC(=O)[C@H](CC(=O)O)NC(=O)[C@H](CO)NC(=O)[C@@H](NC(=O)[C@H](Cc1ccccc1)NC(=O)[C@@H](NC(=O)CNC(=O)[C@H](Cc1c[nH]cn1)NC(=O)C(C)(C)NC(=O)[C@@H](N)Cc1c[nH]cn1)[C@@H](C)O)[C@@H](C)O)C(=O)N[C@@H](Cc1ccc(O)cc1)C(=O)N[C@@H](CC(C)C)C(=O)N[C@@H](CCC(=O)O)C(=O)N[C@@H](CCCCNC(=O)[C@@H](N)CCCCNC(=O)[C@@H](N)CCCCNC(=O)CC[C@H](NC(=O)CCCCCCCCCCCCCCCCCCC(=O)O)C(=O)O)C(=O)N[C@@H](CCC(N)=O)C(=O)N[C@@H](C)C(=O)N[C@@H](C)C(=O)NC(C)(C)C(=O)N[C@@H](CCC(=O)O)C(=O)N[C@@H](Cc1ccccc1)C(=O)N[C@H](C(=O)N[C@@H](CCC(N)=O)C(=O)N[C@@H](Cc1c[nH]c2ccccc12)C(=O)N[C@@H](CC(C)C)C(=O)N[C@@H](CC(C)C)C(=O)N[C@@H](CCC(=O)O)C(=O)NCC(=O)NCC(=O)N1CCC[C@H]1C(=O)N[C@@H](CO)C(=O)N[C@@H](CO)C(=O)NCC(=O)N[C@@H](C)C(=O)N1CCC[C@H]1C(=O)N1CCC[C@H]1C(=O)N1CCC[C@H]1C(=O)N[C@@H](CO)C(N)=O)C(C)C [Compound No. 22] (H-H[Aib]HGTFTSDYSIYLEK([εLys-εLys-γGlu-C20 diacid])QAA[Aib]EFVQWLLEGGPSSGAPPPS-NH2; N-terminus assumed) was run?
Answer: Its EC50 is 7.1 pM.

Question: What about the EC50 [2] of the same compound?
Answer: The EC50 was 2 pM.

Question: For CC[C@H](C)[C@H](NC(=O)[C@H](CO)NC(=O)[C@H](Cc1ccc(O)cc1)NC(=O)[C@H](CC(=O)O)NC(=O)[C@H](CO)NC(=O)[C@@H](NC(=O)[C@H](Cc1ccccc1)NC(=O)[C@@H](NC(=O)CNC(=O)[C@H](Cc1c[nH]cn1)NC(=O)C(C)(C)NC(=O)[C@@H](N)Cc1c[nH]cn1)[C@@H](C)O)[C@@H](C)O)C(=O)N[C@@H](CC(C)C)C(=O)N[C@@H](CC(C)C)C(=O)N[C@@H](CCC(=O)O)C(=O)N[C@@H](CCCCNC(=O)[C@@H](N)CCCCNC(=O)[C@@H](N)CCCCNC(=O)CC[C@H](NC(=O)CCCCCCCCCCCCCCCCCCC(=O)O)C(=O)O)C(=O)N[C@@H](CCC(N)=O)C(=O)N[C@@H](C)C(=O)N[C@@H](C)C(=O)N[C@@H](CCC(=O)O)C(=O)N[C@@H](CCC(=O)O)C(=O)N[C@@H](Cc1ccccc1)C(=O)N[C@H](C(=O)N[C@@H](CCC(N)=O)C(=O)N[C@@H](Cc1c[nH]c2ccccc12)C(=O)N[C@@H](CC(C)C)C(=O)N[C@@H](CC(C)C)C(=O)N[C@@H](CCC(=O)O)C(=O)NCC(=O)NCC(=O)N1CCC[C@H]1C(=O)N[C@@H](CO)C(=O)N[C@@H](CO)C(=O)NCC(=O)N[C@@H](C)C(=O)N1CCC[C@H]1C(=O)N1CCC[C@H]1C(=O)N1CCC[C@H]1C(=O)N[C@@H](CO)C(=O)O)C(C)C [Compound No. 50] (H-H[Aib]HGTFTSDYSILLEK([εLys-εLys-γGlu-C20 diacid])QAAEEFVQWLLEGGPSSGAPPPS-OH), which EC50 ([1]; Table 2) is on record?
Answer: Its EC50 is 1.9 pM.

Question: Which EC50 ([1]; Table 2) does the source give for CC[C@H](C)[C@H](NC(=O)[C@H](CO)NC(=O)[C@H](Cc1ccc(O)cc1)NC(=O)[C@H](CC(=O)O)NC(=O)[C@H](CO)NC(=O)[C@@H](NC(=O)[C@H](Cc1ccccc1)NC(=O)[C@@H](NC(=O)CNC(=O)[C@H](Cc1c[nH]cn1)NC(=O)C(C)(C)NC(=O)[C@@H](N)Cc1c[nH]cn1)[C@@H](C)O)[C@@H](C)O)C(=O)N[C@@H](CC(C)C)C(=O)N[C@@H](CC(C)C)C(=O)N[C@@H](CCC(=O)O)C(=O)N[C@@H](CCCCNC(=O)[C@@H](N)CCCCNC(=O)[C@@H](N)CCCCNC(=O)CC[C@H](NC(=O)CCCCCCCCCCCCCCCCC(=O)O)C(=O)O)C(=O)N[C@@H](CCC(N)=O)C(=O)N[C@@H](C)C(=O)N[C@@H](C)C(=O)N[C@@H](CCC(=O)O)C(=O)N[C@@H](CCC(=O)O)C(=O)N[C@@H](Cc1ccccc1)C(=O)N[C@H](C(=O)N[C@@H](CCC(N)=O)C(=O)N[C@@H](Cc1c[nH]c2ccccc12)C(=O)N[C@@H](CC(C)C)C(=O)N[C@@H](CC(C)C)C(=O)N[C@@H](CCC(=O)O)C(=O)NCC(=O)NCC(=O)N1CCC[C@H]1C(=O)N[C@@H](CO)C(=O)N[C@@H](CO)C(=O)NCC(=O)N[C@@H](C)C(=O)N1CCC[C@H]1C(=O)N1CCC[C@H]1C(=O)N1CCC[C@H]1C(=O)N[C@@H](CO)C(=O)O)C(C)C [Compound No. 51] (H-H[Aib]HGTFTSDYSILLEK([εLys-εLys-γGlu-C18 diacid])QAAEEFVQWLLEGGPSSGAPPPS-OH) here?
Answer: The EC50 was 1.8 pM.

Question: Which EC50 ([1]; Table 2) does the source give for CC[C@H](C)[C@H](NC(=O)[C@H](CO)NC(=O)[C@H](Cc1ccc(O)cc1)NC(=O)[C@H](CC(=O)O)NC(=O)[C@H](CO)NC(=O)[C@@H](NC(=O)[C@H](Cc1ccccc1)NC(=O)[C@@H](NC(=O)CNC(=O)[C@H](Cc1c[nH]cn1)NC(=O)C(C)(C)NC(=O)[C@@H](N)Cc1c[nH]cn1)[C@@H](C)O)[C@@H](C)O)C(=O)N[C@@H](CC(C)C)C(=O)N[C@@H](CC(C)C)C(=O)N[C@@H](CCC(=O)O)C(=O)N[C@@H](CCCCNC(=O)[C@@H](N)CCCCNC(=O)[C@@H](N)CCCCNC(=O)CC[C@H](NC(=O)CCCCCCCCCCCCCCCCCCC(=O)O)C(=O)O)C(=O)N[C@@H](CCC(N)=O)C(=O)N[C@@H](C)C(=O)N[C@@H](C)C(=O)N[C@@H](CCC(N)=O)C(=O)N[C@@H](CCC(=O)O)C(=O)N[C@@H](Cc1ccccc1)C(=O)N[C@H](C(=O)N[C@@H](CCC(N)=O)C(=O)N[C@@H](Cc1c[nH]c2ccccc12)C(=O)N[C@@H](CC(C)C)C(=O)N[C@@H](CC(C)C)C(=O)N[C@@H](CCC(=O)O)C(=O)NCC(=O)NCC(=O)N1CCC[C@H]1C(=O)N[C@@H](CO)C(=O)N[C@@H](CO)C(=O)NCC(=O)N[C@@H](C)C(=O)N1CCC[C@H]1C(=O)N1CCC[C@H]1C(=O)N1CCC[C@H]1C(=O)N[C@@H](CO)C(=O)O)C(C)C [Compound No. 53] (H-H[Aib]HGTFTSDYSILLEK([εLys-εLys-γGlu-C20 diacid])QAAQEFVQWLLEGGPSSGAPPPS-OH) here?
Answer: Its EC50 is 4.8 pM.

Question: Which EC50 ([1]; Table 1, position of substituent varied) does the source give for CCCCCCCCCCCCCCCC(=O)NCCCC[C@H](NC(=O)[C@H](CO)NC(=O)[C@@H]1CCCN1C(=O)[C@@H]1CCCN1C(=O)[C@@H]1CCCN1C(=O)[C@H](C)NC(=O)CNC(=O)[C@H](CO)NC(=O)[C@H](CO)NC(=O)[C@@H]1CCCN1C(=O)CNC(=O)CNC(=O)[C@H](C)NC(=O)[C@H](CC(C)C)NC(=O)[C@H](CC(C)C)NC(=O)[C@H](Cc1c[nH]c2ccccc12)NC(=O)[C@H](CC(N)=O)NC(=O)[C@@H](NC(=O)[C@H](Cc1ccccc1)NC(=O)[C@H](CCC(=O)O)NC(=O)C(C)(C)NC(=O)[C@H](C)NC(=O)[C@H](C)NC(=O)[C@H](CCC(N)=O)NC(=O)[C@H](CCCCN)NC(=O)[C@H](CC(=O)O)NC(=O)[C@H](CC(C)C)NC(=O)[C@H](Cc1ccc(O)cc1)NC(=O)[C@@H](NC(=O)[C@H](CO)NC(=O)[C@H](Cc1ccc(O)cc1)NC(=O)[C@H](CC(=O)O)NC(=O)[C@H](CO)NC(=O)[C@@H](NC(=O)[C@H](Cc1ccccc1)NC(=O)[C@@H](NC(=O)CNC(=O)[C@H](CCC(N)=O)NC(=O)C(C)(C)NC(=O)[C@@H](N)Cc1ccc(O)cc1)[C@@H](C)O)[C@@H](C)O)[C@@H](C)CC)C(C)C)C(N)=O [Compound No. 58, reference compound] (H-Y[Aib]QGTFTSDYSIYLDKQAA[Aib]EFVNWLLAGGPSSGAPPPSK(Palmitoyl)-NH2; N-terminus assumed) here?
Answer: The EC50 was 7.2 pM.

From patent publication US20230391845A1, “GLP-1, GIP AND GLUCAGON RECEPTOR TRIPLE AGONISTS” (priority 2020, published 2023)
